Patent publication US20260284240A1, “RADIOLABELED COMPOUND FOR USE IN A METHOD OF TREATING CARBONIC ANHYDRASE IX POSITIVE DISEASES” (DEBIOPHARM INTERNATIONAL S.A., priority 2023, published 2026)
Starred links: 1 amine or outer side, 2 acyl side, 3 side chain; linkers in the order of their positions; H or OH if unused. Positions of bridges follow the written chain, without caps; N, C: chain ends. Non-standard residues stand in square brackets, D forms with d. Residues, ends and D or L forms follow the SMILES beside them. *: point of attachment. Phe(3-NHCO(CH2)3SO2NH2) = N[C@@H](Cc1cccc(NC(=O)CCCS(N)(=O)=O)c1)C(=O)O; DOTA = O=C(O)CN1CCN(CC(=O)O)CCN(CC(=O)*)CCN(CC(=O)O)CC1; mXylylene = c1cc(C[*:1])cc(C[*:2])c1; X1 = O=C(CN1CCN([*:1])CC1)[*:2]

Test: Dose range finding toxicity study by i.v. bolus in male beagle dogs
Type: in vivo, dog
Settings: i.v. bolus up to 800 μg/kg
Description: The following parameters and endpoints were evaluated: mortality, clinical observations, body weights, food consumption, local reactions, clinical pathology parameters (hematology, coagulation, and clinical chemistry), organ weights, and macroscopic examinations. Both animals were sampled for toxicokinetics (TK) on each dosing occasion (i.e., on day 1, day 5, day 9 and day 13) at: pre-dose, 15 min, 30 min, 1 h, 6 h and 24 h. Blood samples were collected in K2EDTA tubes. Plasma was prepared by centrifugation (2500 g for 10 minutes, +4° C.) within 1 hour after collection, and then frozen within 1 hour after centrifugation and stored at −80° C. […] Chromatographic separation was achieved using a Waters Acquity UPLC system with a Waters Acquity HSS T3 C18 2.1×50 mm, 1.8 μm column. Chromatography was conducted at 50° C. at a flow rate of 0.7 mL/min using a mobile phase consisting of A: acetonitrile, and B: 1% formic acid in water, according to the following linear gradient: 0 to 0.1 min: 90% B; 0.1 to 4.1 min: from 90% B to 74% B; 4.1 to 4.2 min: from 74% B to 5% B; 4.2 to 4.6 min: 5% B; 4.6 to 4.7 min: from 5% B to 90% B; 4.7-5.1 min; 90% B. Detection was performed using a Sciex AP16600 TOF mass spectrometer. Toxicokinetic parameters were estimated from concentration-time data using Phoenix pharmacokinetic software (version 6.4, Certara L.P.). […]

Q: Which Tolerability does the source give for `CC(C)C[C@@H]1NC(=O)[C@H](Cc2cccc(NC(=O)CCCS(N)(=O)=O)c2)NC(=O)[C@H](CC(=O)O)NC(=O)[C@H]2CCCN2C(=O)[C@H](CCC(=O)O)NC(=O)[C@@H](NC(=O)[C@H](CCC(N)=O)NC(=O)CN2CCN(C(=O)CN3CCN(CC(=O)O)CCN(CC(=O)O)CCN(CC(=O)O)CC3)CC2)CSCc2cccc(c2)CSC[C@@H](C(N)=O)NC(=O)[C@H](CO)NC(=O)[C@H](Cc2c[nH]c3ccccc23)NC(=O)[C@H]([C@@H](C)O)NC1=O` [DPI-4452, DOTA-PPAc-Gln-[Cys(3MeBn)-Glu-pro-Asp-Af3(Cpsu)-Leu-Thr-Trp-Ser-Cys]-NH2] ({DOTA}-[X1]QCE[dP]D[Phe(3-NHCO(CH2)3SO2NH2)]LTWSC-NH2; linker 3-12 via mXylylene) here?
A: well tolerated systemically and locally
